Experimental findings from US9662327B2 (AGIOS PHARMACEUTICALS, INC, priority 2011, dated 2017) are described below.

pIC50: −log10 of the molar value.

Sequence of IDH1 R132H (O75874 whole entry R132H): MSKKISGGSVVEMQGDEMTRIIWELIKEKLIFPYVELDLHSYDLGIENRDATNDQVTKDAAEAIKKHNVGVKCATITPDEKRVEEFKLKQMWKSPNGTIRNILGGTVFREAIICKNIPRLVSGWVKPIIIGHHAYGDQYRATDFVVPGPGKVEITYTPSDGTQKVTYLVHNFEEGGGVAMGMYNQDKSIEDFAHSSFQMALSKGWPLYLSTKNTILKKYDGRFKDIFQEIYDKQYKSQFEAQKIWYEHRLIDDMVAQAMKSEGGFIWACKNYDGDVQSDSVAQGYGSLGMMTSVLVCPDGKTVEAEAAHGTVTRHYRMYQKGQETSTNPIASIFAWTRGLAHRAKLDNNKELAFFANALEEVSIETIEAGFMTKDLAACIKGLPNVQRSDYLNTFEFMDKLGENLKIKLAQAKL

One experiment deals with IDH1 R132H (Homo sapiens (Human), UniProt O75874, R132H). In words: Assays for IDH1 R132H Inhibitors (NADPH/aKG, resazurin detection). Type of experiment: biochemical. The conditions noted are these: IDH1 R132H enzyme, Table 2; read-out: IDHR132H Activity. An outline of the steps:
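Mutant enzyme in 150 mM NaCl, 10 mM MgCl2, 20 mM Tris pH 7.5, 0.03% BSA; compound in DMSO added to substrate mix of 8 uM NADPH and 2 mM aKG. Reaction ran 50 min at room temperature, then resazurin detection mix (30 μM) added for 5 min at room temperature.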
As for `CC(C)c1nc(N2CCN(C(=O)c3cocn3)[C@H](C)C2)c(C#N)c2c1COC(C)(C)C2` [Compound 198, (R)-8-isopropyl-3,3-dimethyl-6-(3-methyl-4-(oxazole-4-carbonyl)piperazin-1-yl)-3,4-dihydro-1H-pyrano[3,4-c]pyridine-5-carbonitrile], the pIC50 was 5.00 to 6.00.
On the same count and under the same terms, for `CC(C)[C@@H]1CN(c2nc(C3CC3)c3c(c2C#N)CC(C)(C)OC3)CCN1C(=O)COC1CCOC1` (stereo partly drawn) [Compound 417, 8-cyclopropyl-6-((3R)-3-isopropyl-4-(2-(tetrahydrofuran-3-yloxy)acetyl)piperazin-1-yl)-3,3-dimethyl-3,4-dihydro-1H-pyrano[3,4-c]pyridine-5-carbonitrile] the value was 5.00 to 6.00; for `CC1CN(c2nc(C3CCCCC3)c3c(c2C#N)CC(C)(C)OC3)CCN1C(=O)c1ccoc1` (stereo not shown) [Compound 169, 8-cyclohexyl-6-(4-(furan-3-carbonyl)-3-methylpiperazin-1-yl)-3,3-dimethyl-3,4-dihydro-1H-pyrano[3,4-c]pyridine-5-carbonitrile], 5.00 to 6.00; for `CC(=O)N1CCN(c2nc(C3CC3)c3c(c2C#N)CC(C)(C)OC3)C[C@H]1C(C)C` [Compound 352], 6.00 to 6.30.
For the compound `CC(C)[C@@H]1CN(c2nc(C3CC3)c3c(c2C#N)CC(C)(C)OC3)CCN1C(=O)Cn1ncc2ccccc21` [Compound 405, (R)-6-(4-(2-(1H-indazol-1-yl)acetyl)-3-isopropylpiperazin-1-yl)-8-cyclopropyl-3,3-dimethyl-3,4-dihydro-1H-pyrano[3,4-c]pyridine-5-carbonitrile], the pIC50 is 5.00 to 6.00.
With `Cc1ccc(-c2nc(N3CC(C)N(C(=O)c4ccco4)C(C)C3)c(C#N)c3c2COCC3)cc1` (stereo not shown) [Compound 112], the pIC50 was 5.00 to 6.00.
Still for that read-out and setting: for `COC(=O)C1CN(c2nc(C3CC3)c3c(c2C#N)CC(C)(C)OC3)CCN1C(=O)c1ccoc1` (stereo not shown) [Compound 387] the value was 6.00 to 6.30; for `CC(C)c1nc(N2C[C@@H](C)N(C(=O)NC3CCCCC3)[C@@H](C)C2)c(C#N)c2c1CCCC2` [Compound 109, (2S,6R)-4-(4-cyano-1-isopropyl-5,6,7,8-tetrahydroisoquinolin-3-yl)-N-cyclohexyl-2,6-dimethylpiperazine-1-carboxamide], 5.00 to 6.00.
Regarding `COC(=O)CCC(=O)N1CCN(c2nc(C3CC3)c3c(c2C#N)CC(C)(C)OC3)C[C@H]1C(C)C` [Compound 412, (R)-methyl 4-(4-(5-cyano-8-cyclopropyl-3,3-dimethyl-3,4-dihydro-1H-pyrano[3,4-c]pyridin-6-yl)-2-isopropylpiperazin-1-yl)-4-oxobutanoate], the pIC50 is over 6.30.
As for `CC(C)c1nc(N2CCN(C(=O)c3ccsc3)[C@H](C)C2)c(C#N)c2c1COC(C)(C)C2` [Compound 251, (R)-8-isopropyl-3,3-dimethyl-6-(3-methyl-4-(thiophene-3-carbonyl)piperazin-1-yl)-3,4-dihydro-1H-pyrano[3,4-c]pyridine-5-carbonitrile], the pIC50 was 5.00 to 6.00.
Same read-out and setting: for `CC1CN(c2nc(C3CCCCC3)c3c(c2C#N)CC(C)(C)OC3)CCN1C(=O)c1ccco1` (stereo not shown) [Compound 168, 8-cyclohexyl-6-(4-(furan-2-carbonyl)-3-methylpiperazin-1-yl)-3,3-dimethyl-3,4-dihydro-1H-pyrano[3,4-c]pyridine-5-carbonitrile] the value was 5.00 to 6.00.
Same read-out and setting: for `CC(C)[C@@H]1CN(c2nc(C3CCC3)c3c(c2C#N)CC(C)(C)OC3)CCN1C(=O)Cc1cccs1` [Compound 289, (R)-8-cyclobutyl-6-(3-isopropyl-4-(2-(thiophen-2-yl)acetyl)piperazin-1-yl)-3,3-dimethyl-3,4-dihydro-1H-pyrano[3,4-c]pyridine-5-carbonitrile] the value was over 6.30.
As to `C[C@@H]1CN(c2nc(C3CCCCC3)c3c(c2C#N)CCOC3)CCN1C(=O)c1ccoc1` [Compound 160, (R)-8-cyclohexyl-6-(4-(furan-3-carbonyl)-3-methylpiperazin-1-yl)-3,4-dihydro-1H-pyrano[3,4-c]pyridine-5-carbonitrile], the pIC50 is 5.00 to 6.00.
Consider `CC(C)c1nc(N2CCN(C(=O)C3CCOC3)[C@H](C)C2)c(C#N)c2c1COC(C)(C)C2` (stereo partly drawn) [Compound 253, 8-isopropyl-3,3-dimethyl-6-((3R)-3-methyl-4-(tetrahydrofuran-3-carbonyl)piperazin-1-yl)-3,4-dihydro-1H-pyrano[3,4-c]pyridine-5-carbonitrile], for which the pIC50 was 5.00 to 6.00.
For the compound `Cc1cc(C(=O)N2CCN(c3nc(C4CC4)c4c(c3C#N)CC(C)(C)OC4)C[C@H]2C)c(C)o1` [Compound 244], the pIC50 is 5.00 to 6.00.
For `CC(C)c1nc(N2CCN(C(=O)Cc3cccc(F)c3)[C@H](C(C)C)C2)c(C#N)c2c1COC(C)(C)C2` [Compound 234, (R)-6-(4-(2-(3-fluorophenyl)acetyl)-3-isopropylpiperazin-1-yl)-8-isopropyl-3,3-dimethyl-3,4-dihydro-1H-pyrano[3,4-c]pyridine-5-carbonitrile], the pIC50 was 5.00 to 6.00.
Take `C[C@@H]1CN(c2nc(C3CCCCC3)c3c(c2C#N)CCOC3)CCN1C(=O)c1nccn1C` [Compound 262, (R)-8-cyclohexyl-6-(3-methyl-4-(1-methyl-1H-imidazole-2-carbonyl)piperazin-1-yl)-3,4-dihydro-1H-pyrano[3,4-c]pyridine-5-carbonitrile]: the pIC50 was 5.00 to 6.00.
Same read-out and setting: for `CC(C)COC(=O)N1CCN(c2nc(C3CC3)c3c(c2C#N)CC(C)(C)OC3)C[C@H]1C(C)C` [Compound 339, (R)-isobutyl 4-(5-cyano-8-cyclopropyl-3,3-dimethyl-3,4-dihydro-1H-pyrano[3,4-c]pyridin-6-yl)-2-isopropyl-piperazine-1-carboxylate] the value was 5.00 to 6.00.
On the same count and under the same terms, for `CC1(C)Cc2c(C#N)c(N3CCN(C(=O)c4ccoc4)C(c4ccccc4)C3)nc(C3CCCCC3)c2CO1` (stereo not shown) [Compound 143, 8-cyclohexyl-6-(4-(furan-3-carbonyl)-3-phenylpiperazin-1-yl)-3,3-dimethyl-3,4-dihydro-1H-pyrano[3,4-c]pyridine-5-carbonitrile] the value was 5.00 to 6.00; for `COCC(=O)N1CCN(c2nc(C3CC3)c3c(c2C#N)CC(C)(C)OC3)C[C@H]1C(C)C` [Compound 347, (R)-8-cyclopropyl-6-(3-isopropyl-4-(2-methoxyacetyl)piperazin-1-yl)-3,3-dimethyl-3,4-dihydro-1H-pyrano[3,4-c]pyridine-5-carbonitrile], over 6.30.
As to `COc1ccccc1CC(=O)N1CCN(c2nc(C(C)C)c3c(c2C#N)CC(C)(C)OC3)C[C@H]1C` [Compound 199, (R)-8-isopropyl-6-(4-(2-(2-methoxyphenyl)acetyl)-3-methylpiperazin-1-yl)-3,3-dimethyl-3,4-dihydro-1H-pyrano[3,4-c]pyridine-5-carbonitrile], the pIC50 was 5.00 to 6.00.
As to `CC(C)[C@@H]1CN(c2nc(C3CC3)c3c(c2C#N)CC(C)(C)OC3)CCN1S(C)(=O)=O` [Compound 323, (R)-8-cyclopropyl-6-(3-isopropyl-4-(methylsulfonyl)piperazin-1-yl)-3,3-dimethyl-3,4-dihydro-1H-pyrano[3,4-c]pyridine-5-carbonitrile], the pIC50 is 5.00 to 6.00.
The same measure, in the same setting: for `CC(C)[C@@H]1CN(c2nc(C3CC3)c3c(c2C#N)CC(C)(C)OC3)CCN1C(=O)Cn1nccn1` [Compound 407, (R)-6-(4-(2-(2H-1,2,3-triazol-2-yl)acetyl)-3-isopropylpiperazin-1-yl)-8-cyclopropyl-3,3-dimethyl-3,4-dihydro-1H-pyrano[3,4-c]pyridine-5-carbonitrile] the value was 6.00 to 6.30; for `C[C@@H]1CN(c2nc(C3CCCCC3)c3c(c2C#N)CCOC3)CCN1C(=O)C1CCOC1` (stereo partly drawn) [Compound 263, 8-cyclohexyl-6-((3R)-3-methyl-4-(tetrahydrofuran-3-carbonyl)piperazin-1-yl)-3,4-dihydro-1H-pyrano[3,4-c]pyridine-5-carbonitrile], 5.00 to 6.00.
As for `CC[C@@H]1CN(c2nc(C3CC3)c3c(c2C#N)CC(C)(C)OC3)CCN1C(=O)c1ccoc1` [Compound 235], the pIC50 was over 6.30.
The same measure, in the same setting: for `CC(C)[C@@H]1CN(c2nc(C3CC3)c3c(c2C#N)CC(C)(C)OC3)CCN1C(=O)CCC(=O)O` [Compound 416, (R)-4-(4-(5-cyano-8-cyclopropyl-3,3-dimethyl-3,4-dihydro-1H-pyrano[3,4-c]pyridin-6-yl)-2-isopropylpiperazin-1-yl)-4-oxobutanoic acid] the value was 5.00 to 6.00; for `C[C@@H]1CN(c2nc(C3CCCCC3)c3c(c2C#N)CCOC3)CCN1C(=O)c1cocn1` [Compound 226, (R)-8-cyclohexyl-6-(3-methyl-4-(oxazole-4-carbonyl)piperazin-1-yl)-3,4-dihydro-1H-pyrano[3,4-c]pyridine-5-carbonitrile], 5.00 to 6.00.

Still in this experiment, the particulars now being: IDH1 R132H enzyme, Table 3; read-out: R132H IC50.
As for `COC(=O)OC[C@@H]1C[C@H]1C(=O)N1CCN(c2nc(C3CC3)c3c(c2C#N)CC(C)(C)OC3)C[C@H]1C(C)C` [Compound 472, ((1R,2R)-2-((R)-4-(5-cyano-8-cyclopropyl-3,3-dimethyl-3,4-dihydro-1H-pyrano[3,4-c]pyridin-6-yl)-2-isopropylpiperazine-1-carbonyl)cyclopropyl)methyl methyl carbonate], the pIC50 was over 6.30.
With `COCCC(=O)N1CCN(c2nc(C3CC3)c3c(c2C#N)CC(C)(C)OC3)CC1C(F)F` (stereo not shown) [Compound 464], the pIC50 was 6.00 to 6.30.
Consider `COC(=O)C(C)CCC(=O)N1CCN(c2nc(C3CC3)c3c(c2C#N)CC(C)(C)OC3)C[C@H]1C(C)C` (stereo partly drawn) [Compound 439, Methyl 5-((R)-4-(5-cyano-8-cyclopropyl-3,3-dimethyl-3,4-dihydro-1H-pyrano[3,4-c]pyridin-6-yl)-2-isopropylpiperazin-1-yl)-2-methyl-5-oxopentanoate], for which the pIC50 was 6.00 to 6.30.
Same read-out and setting: for `CCOC(=O)[C@@H]1CN(c2nc(C3CC3)c3c(c2C#N)CC(C)(C)OC3)CCN1C(C)=O` [Compound 468, (S)-ethyl 1-acetyl-4-(5-cyano-8-cyclopropyl-3,3-dimethyl-3,4-dihydro-1H-pyrano[3,4-c]pyridin-6-yl)piperazine-2-carboxylate] the value was 6.00 to 6.30.
